Test results: patent publication US20180072675A1, “ANTIMICROBIAL PYRIDINOHYDRAZIDE AND HYDRAZOMETHYLPYRIDINE-BASED AGENTS” (Board of Supervisors of Louisiana State University and …, priority 2015, published 2018)
In brackets after ≈: the same amount, converted by molar mass.

How the values were obtained:
[1] = system: Candida glabrata (ATCC Accession No. 48435); experiment: MIC80 fungal growth inhibition, C. glabrata ATCC 48435; assay type: cell-based; settings: Azole-resistant, >80% growth inhibition, visual scoring; for MIC80: Nakaseomyces glabratus, ATCC48435, read-out: MIC80 C. glabrata ATCC No. 48435
Protocol: (§1) The antifungal activity of the pyridinohydrazide and hydrazomethylpyridine derivatives described in the s were evaluated in vitro using Candida albicans (ATCC Accession No. 10231) and Candida glabrata (ATCC Accession No. 48435). In addition, the compounds were evaluated for activity against two previously-described clinical isolates of C. albicans known to have developed azole-resistance. These isolates were obtained over a two year period from a single AIDS patient and the development of the azole-resistance mechanisms have been extensively characterized (White T C. Antimicrob. Agents Chemother. (1997) 41: 1482-1487). MIC assays were performed on the clinical isolates 1 and 17 (annotated TW1 and TW17, respectively), where isolate 1 was used as an azole-susceptible control and isolate 17 was considered azole-resistant. All assays were done in accordance with NCCLS reference documents (Clinical Laboratory and Standards Institute. Reference method for Broth Dilution Antifungal Susceptibility Testing of Yeasts: Approved Standard. M27-A3 2010; 28). The results of these screenings are summarized in Tables 1-9 (Examples 20-27) as the minimum concentrations that inhibited more than 80% of fungal growth (MIC80) as compared to positive controls containing 1% DMSO. Assays were performed in HEPES-buffered RPMI-1640 media. All MIC screens used a visual scoring method as opposed to spectroscopic analysis, due to the altered absorbance spectra of many of the compounds.

[2] = system: Candida albicans (ATCC Accession No. 10231); experiment: MIC80 fungal growth inhibition, C. albicans ATCC 10231; assay type: cell-based; settings: Azole-susceptible, >80% growth inhibition, visual scoring; for MIC80: Candida albicans, ATCC10231, read-out: MIC80 C. albicans ATCC No. 10231
Protocol: as §1

[3] = system: C. albicans clinical isolate 1 (TW1); experiment: MIC80 fungal growth inhibition, clinical isolate TW1; assay type: cell-based, Candida albicans; settings: Azole-susceptible, >80% growth inhibition, visual scoring; for MIC80: Candida albicans, read-out: MIC80 TW1
Protocol: as §1

[4] = system: C. albicans clinical isolate 17 (TW17); experiment: MIC80 fungal growth inhibition, clinical isolate TW17; assay type: cell-based, Candida albicans; settings: Azole-resistant, >80% growth inhibition, visual scoring; for MIC80: Candida albicans, read-out: MIC80 TW17
Protocol: as §1

[5] = system: Candida albicans ATCC Accession No. 10231; experiment: Checkerboard synergy assay with fluconazole; assay type: cell-based
Protocol: Considering that two different modes of activity (cidal and static) were observed depending on the structural motifs present in our analogs, we performed a series of checkerboard assays to determine if representative active compounds were in fact acting in synergy with the azole, fluconazole. Each of these assays tested multiple concentrations of the selected analog in the presence of multiple concentrations of fluconazole. All checkerboard assays were prepared in 96-well plates. 200 μl of previously prepared drug solutions were added to each well in column 2. Using a multichannel pipette, 100 μl from each well in column 2 was serially diluted (1:2) horizontally across the plate, stopping at column 10. Contents of each well were mixed thoroughly. Column 11 was reserved for fluconazole MIC control and contained no other drug. 100 μl of media was added to each well, column 2-10. Each well was mixed thoroughly with a multichannel pipette. 100 μl was then removed and discarded from these wells. 100 μl of previously prepared fluconazole dilution was added to each well in row B. Using a multichannel pipette, 100 μl from each well was serially diluted (1:2) vertically down the plate, stopping at row F. Contents of each well were mixed thoroughly. Row G was reserved for tested drug MIC control and contained no fluconazole. Well G11 contained neither drug and served as a drug-free growth control. The final 100 μl from each well in row F was discarded.
The fungal samples were prepared from glycerol stocks of Candida albicans ATCC Accession No. 10231. The inoculum's concentration was adjusted to a McFarland standard between 0.08 and 0.12. Inoculum was then diluted at a ratio of 1:37.5 in buffered media. 100 μl of inoculum-media solution was added to each well. Following inoculation, the 96-well plates were wrapped in parafilm to prevent evaporation and incubated for overnight at 35° C. After 18 h, the wells showing growth were recorded.
Synergistic activity was determined based on the MIC read from these plates. The fractional inhibitory concentration (FIC) for a given well is the ratio of the minimum inhibitory concentration of one drug A in the presence another drug B to the minimum inhibitory concentration with only drug A. The FIC was calculated for the test drug in each of the wells along the growth/no-growth interface at varying concentrations of fluconazole, then these values were averaged to determine the average FIC for the test drug. The same process was used to calculate the average FIC for fluconazole at varying concentrations of the test drug. The sum of these two FICs gives the FIC index which can be used to determine the synergistic effect between the two drugs (Hsieh et al., Diagn. Microbiol. Infect. Dis. (1993) 16: 343-349). An FIC index value less than 1 indicated synergistic interactions between the two drugs while an FIC index value greater than or equal to 1 indicated antagonistic interactions.

[6] = system: Candida strain TW17; experiment: Time-kill assay; assay type: cell-based, Candida albicans; settings: four times the MIC for TW17, 48 h
Protocol: FIG. 9 illustrates time-kill assays, for representative analogs that were active against the azole-resistant TW17, to determine the cidal or static nature of the analog tested. 100 μl of each sample was spread onto YM agar plates with a sterile bent spreading rod. Plates were incubated at 35° C. overnight and colonies were then counted on each plate.
One of the objectives of this study was to determine the cidal or static nature of the analogs that were active against such as TW17, the azole-resistant clinical isolate. Azoles affect Candida spp. by inhibiting ergosterol biosynthesis, and ultimately prevent their reproduction. This effect has led to the classification of azoles as fungistats. Determining the fungistatic or fungicidal nature of the synthesized compounds of the present disclosure allows a comparison to azoles, in addition to improving the understanding of how the structural motifs might lend toward an alternate mechanism of action. Therefore, time-kill assays were performed using the representative analogs that were active against the azole-resistant TW17 at concentrations at or below 8 μg/mL.
Solid drugs were dissolved in DMSO to a concentration of 10 mg/ml. This stock solution was then further diluted in water to the desired experimental concentration, determined to be four times that of the MIC for the Candida strain TW17 (as reported in the Tables).
Individual colonies of TW17 were suspended in 5 ml of sterile water and adjusted to achieve a McFarland reading between 0.08 and 0.12. The inoculum was then further diluted in sterile water at a ratio of 1:100. Three […] tissue culture tubes were prepared by combining 2.5 ml of above diluted inoculum, 21.7 ml of HEPES buffered RPMI-1640 media, and 800 μl of experimental drug dilution. A “Growth Control” tube was prepared by combining 2.5 ml of inoculum, 21.7 HEPES buffered RPMI-1640 media, and 800 μl of water-DMSO solution equal to the DMSO concentration of the experimental drug dilution. A “Sterile Control” tube was prepared by combining 24.2 ml of HEPES-buffered RPMI-1640 media and 800 μl of water-DMSO solution as in the “Growth Control”. All tubes were incubated for 48 hours at 35° C., 50 rpm. 500 μl samples were taken from the tubes at time points of predetermined intervals during this incubation.
Time points for the “Kill-Curve” and “Growth Control” tubes were taken at 0, 1, 2, 4, 6, 8, 24, and 48 h after the start of incubation. Time points for “Sterile Control” were taken at 0 and 48 hours. Each time point sample was serially diluted 1:10 in sterile 0.9% NaCl solution up to 5 times. 100 μl of each sample was spread onto YM agar plates with a sterile bent spreading rod. Plates were incubated at 35° C. overnight and colonies were then counted on each plate. Colonies on plates from diluted time points were used to estimate uncountable undiluted samples. The number of colonies in undiluted samples was estimated to be 10^n times greater than the diluted sample, where n was the number of dilutions made.

| MIC80 [1] [µg/mL] | MIC80 [2] [µg/mL] | MIC80 [3] [µg/mL] | MIC80 [4] [µg/mL] | MIC80 C. glabrata ATCC No. 48435 [1] [µg/mL] | MIC80 C. albicans ATCC No. 10231 [2] [µg/mL] | MIC80 TW17 [4] [µg/mL] | MIC80 TW1 [3] [µg/mL] | SMILES | also measured |
| --- | --- | --- | --- | --- | --- | --- | --- | --- | --- |
| 8 (≈ 33.2 µM) | 16 (≈ 66.3 µM) | 62 (≈ 257 µM) | – | – | – | – | – | O=C(N/N=C/c1ccccc1O)c1ccccn1 [AR1, (E)-N′-(2-hydroxybenzylidene)picolinohydrazide] | – |
| 1 (≈ 3.69 µM) | 4 (≈ 14.7 µM) | 8 (≈ 29.5 µM) | 31 (≈ 114 µM) | – | – | – | – | COc1ccc(O)c(/C=N/NC(=O)c2ccccn2)c1 [AR3, (E)-N′-(2-Hydroxy-5-methoxybenzylidene)picolinohydrazide] | – |
| 8 (≈ 27.9 µM) | 4 (≈ 14 µM) | 8 (≈ 27.9 µM) | 8 (≈ 27.9 µM) | – | – | – | – | O=C(N/N=C/c1cc([N+](=O)[O-])ccc1O)c1ccccn1 [AR6, (E)-N′-(2-hydroxy-5-nitrobenzylidene)picolinohydrazide] | FIC Fluc ([5]; average FIC of fluconazole at varying concentrations of the test drug): 1.00; FIC Test ([5]; average FIC of the test drug at varying concentrations of fluconazole): 1.00; Activity (interaction with fluconazole) ([5]; from FIC index): Antagonistic; FIC Index ([5]; sum of the two FICs, <1 synergistic, >=1 antagonistic): 2.00; Cidal vs Static [6]: Static |
| 16 (≈ 66.3 µM) | 4 (≈ 16.6 µM) | 4 (≈ 16.6 µM) | 31 (≈ 128 µM) | – | – | – | – | O=C(N/N=C/c1ccccc1O)c1cccnc1 [AR7] | – |
| – | – | – | – | 4 (≈ 14.7 µM) | 62 (≈ 229 µM) | 4 (≈ 14.7 µM) | 16 (≈ 59 µM) | COc1ccc(O)c(/C=N/NC(=O)c2cccnc2)c1 [AR9] | – |
| 8 (≈ 29 µM) | 4 (≈ 14.5 µM) | 8 (≈ 29 µM) | 62 (≈ 225 µM) | – | – | – | – | O=C(N/N=C/c1cc(Cl)ccc1O)c1cccnc1 [AR10] | – |
| – | – | – | – | 16 (≈ 50 µM) | 4 (≈ 12.5 µM) | 16 (≈ 50 µM) | 8 (≈ 25 µM) | O=C(NN=Cc1cc(Br)ccc1O)c1cccnc1 [AR11] | – |
| – | – | – | – | 16 (≈ 66.3 µM) | 8 (≈ 33.2 µM) | 31 (≈ 128 µM) | 4 (≈ 16.6 µM) | O=C(NN=Cc1ccccc1O)c1ccncc1 [AR13] | – |
| – | – | – | – | 31 (≈ 121 µM) | 4 (≈ 15.7 µM) | 31 (≈ 121 µM) | 16 (≈ 62.7 µM) | Cc1ccc(O)c(C=NNC(=O)c2ccncc2)c1 [AR14] | – |
| 4 (≈ 14.7 µM) | 4 (≈ 14.7 µM) | 16 (≈ 59 µM) | 16 (≈ 59 µM) | – | – | – | – | COc1ccc(O)c(/C=N/NC(=O)c2ccncc2)c1 [AR15] | – |
| – | – | – | – | 16 (≈ 58 µM) | 31 (≈ 112 µM) | 125 (≈ 453 µM) | 16 (≈ 58 µM) | O=C(NN=Cc1cc(Cl)ccc1O)c1ccncc1 [AR16] | – |
